Experimental data: publication PMC9220111, “Pharmacokinetics and Pharmacodynamics of Colistin Methanesulfonate in Healthy Chinese Subjects after Multi-Dose Regimen” (Antibiotics, 2022)
Read-outs that look alike come from different tables or passages of the source. Positions of bridges follow the written chain, without caps; N, C: chain ends. Non-standard residues stand in square brackets, D forms with d. Residues, ends and D or L forms follow the SMILES beside them. *: point of attachment. X1 = CC[C@H](C)CCCCC(=O)*; Dab = NCC[C@H](N)C(=O)O

Legend:
[1] = value used to calculate fAUC0–24; cited from earlier work
Procedure: The target values of fAUC0–24/MIC used in this study were from published PK/PD study reports of colistin, conducted on animal infection models. […] The free colistin fraction f used was 50% [6, 31]. AUC0–24,ss values from this study were calculated as 2 times AUC0–12 on day 7 based on the twi ...

[2] = cited from earlier work
Procedure: CMS in clinic has generally been expressed as the internationally accepted term of c ... || A new CMS formula was produced with a 4:1 ratio of CMS A:CMS B, and met the requirements of the European Pharmacopoeia EP9.2 [9]. […] The Cavg,ss (95% CI) was 0.92 (0.85, 0.99) μg/mL after 7 days of 2.5 mg/kg CBA every 12 h (q12 h) administration of this new formulation, as simulated by the obtained single-dose PK parameters. The purpose of this study was to investigate the PK characteristics of CMS and colistin in plasma and urine following multip ... || This study evaluated the applicability of CMS at the recommended dosing regimen (2.5 mg/kg CBA q12 h) for the first time in Chinese subjects.

[3] = Urine excretion of CMS and colistin after multi-dose intravenous infusions of CMS; format: in vivo; conditions: human, 12 subjects, mean ± SD, read-out: Cumulative urine excretion rate within 0–24 h
Procedure: Urine samples (700 μL) were mixed with equal volume of 1% bovine serum albumin (BSA) prior and stored at −70 ± 10 °C until analysis.

[4] = tested on: extremely drug-resistant (XDR) P. aeruginosa; conditions: cited from earlier work
[5] = Plasma pharmacokinetics of CMS and colistin after multi-dose intravenous infusions of CMS; conditions: for CLr: renal clearance; for clearance: CLt; for Cmax: healthy Chinese subjects, UPLC-MS/MS
Procedure: A single-center, open-label, multi-dose trial design was conducted following multiple intravenous administrations of CMS in 12 healthy Chinese subjects.
The dose regimen was 2.5 mg/kg CBA for 7 consecutive days with 12 h between each administration, except for one dose on day 1 (first dose) and day 7 (last dose). Each intravenous infusion time was 90 ± 10 min.
The blood samples were collected on day 1 and day 7 at pre-dose during intravenous infusion (30 min and 60 min after the start of intravenous infusion), immediately after the end of intravenous infusion (1.5 h) and at 1.75 h, 2 h, 2.5 h, 3.5 h, 5 h, 7 h, 9 h, 12 h, 16 h and 24 h after the start of intravenous infusion. From day 2 to day 6, blood samples were collected before and immediately after the end of infusion of the first dose. All blood samples were collected and transferred into an EDTA-K2 tube, and were then centrifuged at 3500 rpm for 10 min at 4 °C. Within 1 h after blood collection, the plasma samples were stored at −70 ± 10 °C until analysis [10].
The concentrations of CMS and colistin in plasma and urine samples were analyzed with a verified ultra-performance liquid chromatography tandem mass spectrometry method [30]. To determine the free colistin concentration, the matrix was alkalized with 5% ammonia at 0–4 °C, and CMS concentrations were obtained with acid hydrolysis, and then loaded onto the Oasis weak cation exchange 96-well plate (WCX, Waters, Milford, MA, USA). The standard curves of colistin A/colistin B for the plasma and urine samples ranged from 0.0446/0.0332–4.46/3.32 μg/mL to 0.0223/0.0166–2.23/1.66 μg/mL [10], respectively. The concentrations of colistin and CMS were determined as the major components of colistin A+ colistin B and colistin A methanesulfonate (CMS A) + colistin B methanesulfonate (CMS B), respectively.
The PK parameters of CMS and colistin in plasma were calculated by the non-compartment model [23] using the WinNonlin8.0 software (Pharsight, Mountain View, CA, USA). […] The urine excretion rate was calculated according to the correction of renal clearance (CLr). The PK parameters in urine samples calculated included interval urinary excretion rate, cumulative urinary excretion rate and CLr.
The PK parameters were expressed as average ± standard deviation (mean ± SD). The main PK parameters after the first and last doses were evaluated by paired t test (SAS 9.4, SAS Institute, Inc., Cary, NC, USA). p value ≤ 0.05 was considered as significant.

[6] = earlier CMS formula, CMS A:CMS B 1:2, healthy Chinese subjects
[7] = 33 patients with XDR P. aeruginosa UTIs
[8] = Day 7 (last dose, steady state), CMS 2.5 mg/kg CBA i.v. q12 h 7 days, plasma, mean ± SD, n = 12, SD
[9] = human, plasma, iv, 2.5 mg/kg CBA, Day 1 (first dose), CMS 2.5 mg/kg CBA i.v., mean ± SD, n = 12, SD
[10] = human, plasma, iv, 2.5 mg/kg CBA, Day 7 (last dose, steady state), CMS 2.5 mg/kg CBA i.v. q12 h 7 days, mean ± SD, n = 12, SD
[11] = human, plasma, iv, 2.5 mg/kg CBA, SD

CC[C@H](C)CCCCC(=O)N[C@@H](CCN)C(=O)N[C@H](C(=O)N[C@@H](CCN)C(=O)N[C@H]1CCNC(=O)[C@H]([C@@H](C)O)NC(=O)[C@H](CCN)NC(=O)[C@H](CCN)NC(=O)[C@H](CC(C)C)NC(=O)[C@@H](CC(C)C)NC(=O)[C@H](CCN)NC1=O)[C@@H](C)O [colistin] (X1-[Dab]T[Dab][Dab][Dab][dL]L[Dab][Dab]T; lactam 4-C)
free colistin fraction f [1]: 50%
plasma Cavg,ss of colistin ([2]; 51 critically ill patients with normal renal function (CLCr ≥ 80 mL/min), FDA-recommended dose 2.5–5 mg CBA/kg): 1.29 (0.45–5.28) μg/mL
median Cavg,ss concentration ([2]; 87 critically ill patients with CrCL >120 mL/min, loading dose 9 MIU then 4.5 MIU twice daily): 1.6 (0.4–4.8) μg/mL
median concentration (plasma Cavg,ss of colistin) ([2]; 214 patients with different renal functions): 2.35 (0.24–9.92) μg/mL
AUC0–12,ss [2, 6]: 9230 ± 1790 ng·h/mL
Cavg,ss [2, 6]: 760 ± 151 ng/mL
AUC0–12,ss ([2]; healthy Japanese subjects, CMS 2.5 mg/kg CBA i.v. twice a day for 2.5 days): 25700 ± 7490 ng·h/mL
Patients achieving Cavg,ss at ≥1 μg/mL ([2]; patients with normal renal function at the recommended doses of EMA and FDA): 65–75%
Cavg,ss (95% CI) ([2]; simulated from single-dose PK parameters, 7 days of 2.5 mg/kg CBA q12 h of the new formulation): 0.92 (0.85, 0.99) μg/mL
dose excreted ([3]; after the first dose, CMS 2.5 mg/kg CBA i.v., day 1 urine stored without BSA, for reference only): 0.41 ± 0.28%
dose excreted ([3]; urine, 2.5 mg/kg CBA, after the last dose (steady state), CMS 2.5 mg/kg CBA i.v. q12 h 7 days): 1.22 ± 0.7%
AUC0–24/MIC [4, 7]: 60.5 ± 56.4
fAUC0–24/MIC [4, 7]: 30.2 ± 28.2
Cavg,ss ([4]; patients with XDR P. aeruginosa UTIs): 1.19 (0.21–5.20) μg/mL
CLr ([5]; Day 1 (first dose), CMS 2.5 mg/kg CBA i.v., mean ± SD, n = 12, day 1 urine stored without BSA, for reference only, SD): 0.013 ± 0.0067 mL/min/kg
CLr ([5]; Day 7 (last dose), CMS 2.5 mg/kg CBA i.v. q12 h 7 days, mean ± SD, n = 12, SD): 0.025 ± 0.012 mL/min/kg
Cavg,ss [5, 8]: 1270 ± 270 ng/mL
Cmin,ss [5, 8]: 670 ± 220 ng/mL
AI (accumulation index) ([5]; Day 7, after 7 consecutive days of CMS 2.5 mg/kg CBA i.v. q12 h, mean ± SD, n = 12, SD): 1.32 ± 0.06
AUC(0-t) ([5]; human, plasma, iv, 2.5 mg/kg CBA, AUC0–12 (AUC0–12,ss), Day 7 (last dose, steady state), CMS 2.5 mg/kg CBA i.v. q12 h 7 days, plasma, mean ± SD, n = 12, SD): 15300 ± 3290 ng·h/mL
AUC(0-t) ([5]; human, plasma, iv, 2.5 mg/kg CBA, AUC0–12, Day 1 (first dose), CMS 2.5 mg/kg CBA i.v., plasma, mean ± SD, n = 12, SD): 9800 ± 1710 ng·h/mL
AUC(0-t) ([5]; human, plasma, iv, 2.5 mg/kg CBA, AUC0–24, Day 1 (first dose), CMS 2.5 mg/kg CBA i.v., plasma, mean ± SD, n = 12, SD): 12600 ± 2550 ng·h/mL
clearance [5, 9]: 3.5 mL/min/kg
clearance [5, 10]: 3 mL/min/kg
Cmax ([5]; human, plasma, iv, 2.5 mg/kg CBA, Day 1 (first dose), CMS 2.5 mg/kg CBA i.v. infusion 90 min, plasma, non-compartment model, mean ± SD, n = 12, SD): 1170 ± 180 ng/mL
Cmax ([5]; human, plasma, iv, 2.5 mg/kg CBA, Day 7 (last dose, steady state), CMS 2.5 mg/kg CBA i.v. q12 h 7 days, plasma, mean ± SD, n = 12, SD): 1790 ± 370 ng/mL
half-life ([5]; human, plasma, iv, 2.5 mg/kg CBA, T1/2, Day 1 (first dose), CMS 2.5 mg/kg CBA i.v., plasma, mean ± SD, n = 12, SD): 5.15 ± 0.95 h
half-life ([5]; human, plasma, iv, 2.5 mg/kg CBA, T1/2, Day 7 (last dose), CMS 2.5 mg/kg CBA i.v. q12 h 7 days, plasma, mean ± SD, n = 12, SD): 5.9 ± 0.58 h
half-life ([5]; human, plasma, iv, 2.5 mg/kg CBA, T1/2, median, after the first dose, median, n = 12): 4.97 h
half-life ([5]; human, plasma, iv, 2.5 mg/kg CBA, T1/2, median, after the last dose, median, n = 12): 6.1 h
Tmax ([5]; human, plasma, iv, 2.5 mg/kg CBA, Day 1 (first dose), CMS 2.5 mg/kg CBA i.v., plasma, mean ± SD, n = 12, SD): 4.42 ± 0.9 h
Tmax ([5]; human, plasma, iv, 2.5 mg/kg CBA, Day 7 (last dose), CMS 2.5 mg/kg CBA i.v. q12 h 7 days, plasma, mean ± SD, n = 12, SD): 3.38 ± 0.68 h
Tmax ([5]; human, plasma, iv, 2.5 mg/kg CBA, median, after the first dose, median, n = 12): 5 h
Tmax ([5]; human, plasma, iv, 2.5 mg/kg CBA, median, after the last dose, median, n = 12): 3.5 h
Vd [5, 9]: 1.52 ± 0.22 L/kg
Vd [5, 10]: 1.66 ± 0.25 L/kg
level at 48 h [5, 11]: 93 ± 42.8 ng/mL
level at 72 h [5, 11]: 632 ± 155 ng/mL
level at 96 h [5, 11]: 684 ± 177 ng/mL
level at 120 h [5, 11]: 738 ± 217 ng/mL
level at 144 h [5, 11]: 754 ± 238 ng/mL
